Experimental data from patent publication US10894032B2, “Microbial-relief composition” (Curazene, LLC, priority 2014, dated 2021).
Read-outs that look alike come from different tables or passages of the source.

Key:
Enterococcus = experiment: Example 6 infected decubitus ulcer of a patient; format: in vivo, human; settings: five days of antibiotic before the composition
From the text: Both swabs were sent to the lab and a count of colony-forming units (CFUs) was ordered.

[1] = test system: ATCC 29213 (MSSA) and ATCC 43330 (MRSA)
Procedure: Testing was conducted at a pathology laboratory certified for microbiology testing by a physician and a microbiologist. A double blind, randomized controlled experiment was conducted to evaluate the SBDS surfactant against bacteria in Petri dishes.
(§1) Bacterial strain: Two well characterized strains of methicillin-sensitive Staphylococcus aureus (MSSA) and methicillin-resistant Staphylococcus aureus (MRSA) were used. Specifically, experiments used ATCC 29213 (MSSA) and ATCC 43330 (MRSA), both beta-lactamase positive strains, which represent greater than 90% of the respective strains in the American population.
(§2) Petri dish preparation: A sterile cotton swab (American Scientific Products, McGraw Park, Ill.) was dipped into the cultures and used to swab the entire surface of 150×15 mm Petri dishes containing 75 ml of standard Mueller-Hinton agar. Two Petri dishes were inoculated with ATCC 29213 (MSSA and two Petri dishes with ATCC 43330 (MRSA). One Petri dish of each group (MSSA and MRSA) was set aside as the controls. The other two Petri dishes (MSSA and MRSA) were divided up in quadrants, and each quadrant was labeled B, C, D or E.
To evaluate a wider range of surfactant concentrations, cleanser compositions were prepared as follows: A surfactant solution and a stock solution were mixed in various ratios to produce four skin cleanser solutions having four different surfactant concentrations of […], weight-to-weight. The amount of other ingredients in each of the four skin cleanser solutions was less than 1% concentration weight-to-weight.
Cleanser Testing: Four samples of the cleanser with the four different concentrations of the surfactant […] were placed into four separate, unmarked bottles. Each bottle was randomly labeled (B, C, D, or E), and the microbiologist conducting the study was unaware of any difference between the solutions.
(§3) Application: Holding each bottle vertically, the microbiologist added a single drop from each bottle (B, C, D, or E) to the corresponding quadrant of the labeled Petri dish. All four Petri dishes were placed in an incubator overnight at 37 degrees Celsius, and examined 20 hours later. Petri dishes were compared to the corresponding controls, and zones of inhibition were characterized by the largest point of diameter of the circle or oval.

MRSA strains = settings: averaged over three repeated experiments
From the text: as §1, §2, §3

mycobacteria marinum = experiment: Example 7 finger infection of a patient; format: in vivo, human; settings: eleven days of antibiotics before the composition
Procedure: Action against Mycobacteria: A person with four-month long history of an infection on the posterior aspect of their right ring finger was treated. […] After failing two full courses of oral antibiotics, over the previous four months, the patient was given a third round of antibiotics, this time Clarythromycin, after their finger's condition had worsened.

MRSA = settings: human, in vivo; cited from earlier work

## O=C(O)c1cn(C2CC2)c2cc(N3CCNCC3)c(F)cc2c1=O [ciprofloxacin]
Enterococcus
  course of ulcer on antibiotic: showed signs of worsening

## Sodium Dodecylbenzene Sulfonate [surfactant]
[1]; surfactant concentration 0.5%, single drop, 20 hours, 37 degrees Celsius
  difference from controls: no difference between the controls
[1]; surfactant concentration 1%
  inhibition of colony forming units (CFUs): approximately 50%
[1]; surfactant concentration 2%
  inhibition of colony forming units (CFUs): approximately 50%
[1]; surfactant concentration 8%
  diameter of circle of clear inhibition: approximately 40 mm
MRSA strains; Surfactant conc. 1.00% (vol. %)
  Diameter of Zone of Inhibition (mm): No Change
MRSA strains; Surfactant conc. 2.30% (vol. %)
  Diameter of Zone of Inhibition (mm): 35.3 mm
MRSA strains; Surfactant conc. 2.50% (vol. %)
  Diameter of Zone of Inhibition (mm): 33.7 mm
MRSA strains; Surfactant conc. 2.80% (vol. %)
  Diameter of Zone of Inhibition (mm): 32.7 mm
MRSA strains; Surfactant conc. 3.30% (vol. %)
  Diameter of Zone of Inhibition (mm): 37.3 mm
MRSA strains; Surfactant conc. 4.00% (vol. %)
  Diameter of Zone of Inhibition (mm): 39.3 mm
MRSA strains; Surfactant conc. 4.90% (vol. %)
  Diameter of Zone of Inhibition (mm): 41.7 mm
MRSA strains; Surfactant conc. 6.50% (vol. %)
  Diameter of Zone of Inhibition (mm): 39 mm
MRSA strains; Surfactant conc. 9.30% (vol. %)
  Diameter of Zone of Inhibition (mm): 34 mm
MRSA strains; Surfactant conc. 14.80% (vol. %)
  Diameter of Zone of Inhibition (mm): 42.3 mm

## CC[C@H]1OC(=O)[C@H](C)[C@@H](O[C@H]2C[C@@](C)(OC)[C@@H](O)[C@H](C)O2)[C@H](C)[C@@H](O[C@@H]2O[C@H](C)C[C@H](N(C)C)[C@H]2O)[C@](C)(OC)C[C@@H](C)C(=O)[C@H](C)[C@@H](O)[C@]1(C)O [Clarythromycin]
Mycobacteria marinum
  change in symptoms on antibiotic: no change in symptoms

## CN[C@H](CC(C)C)C(=O)N[C@H]1C(=O)N[C@@H](CC(N)=O)C(=O)N[C@H]2C(=O)N[C@H]3C(=O)N[C@H](C(=O)N[C@H](C(=O)O)c4cc(O)cc(O)c4-c4cc3ccc4O)[C@H](O)c3ccc(c(Cl)c3)Oc3cc2cc(c3O[C@@H]2O[C@H](CO)[C@@H](O)[C@H](O)[C@H]2O[C@H]2C[C@](C)(N)[C@H](O)[C@H](C)O2)Oc2ccc(cc2Cl)[C@H]1O [Vancomycin]
MRSA
  share of MRSA patients for whom usually effective: about 40%
